Assays:
Format in all cases: in vivo
[1] = tested on: Tobacco Budworm [Heliothis virescens (Fabricius)] eggs; assay: Tobacco budworm egg test (TBW-E); conditions: percent in solution
[2] = tested on: Maize weevil [Sitophilus Zeamais (Motschulsky)]; assay: Maize weevil test (MW); conditions: adult weevils, treated corn seeds, 48 hours, percent in solution
Description: The compounds in Tables 1 and 2 above were tested for insecticidal activity using the following testing procedures. LC50 values, based on the results of these tests and calculated according to dosage-mortality curves, are expressed in Table 3.
Maize weevil [Sitophilus Zeamais (Motschulsky)]
Test compounds were diluted in a 50:50 acetone:water solution. Four corn seeds [Zea mays (L.)] which had been immersed in test solutions for 2-3 seconds and allowed to dry were placed in containers together with 10 adult weevils. The containers were covered and kept at a temperature of about 25° C. Mortality was recorded after 48 hours. Test concentrations ranged from 0.01% down to that at which 50% mortalilty occurred. The LC50 values are expressed below in Table 3 under the heading "MW" in terms of percent of the test compound in solution.

[3] = tested on: Housefly [Musca domestica]; assay: Housefly insecticidal test (HF); conditions: per 25 female houseflies, 48 hours
[4] = tested on: Cabbage Looper [Trichoplusia ni (Hubner)]; assay: Cabbage looper test (CL); conditions: second-instar larvae, 3-5 days, percent in solution

`Clc1ccc(N=C(OCc2cccc(Oc3ccccc3)c2)C2CCC2)cc1` [Compound 8] was tested, and the “LC50 TBW E” value [1] was over 0.01%, the “LC50 MW” value [2] was over 0.01% and the “LC50 HF” value [3] was 50 µg. For the same compound, the “LC50 CL” value [4] was 0.01%.
With `CC(C)(C)C(=Nc1cccc(C(F)(F)F)c1)OCc1cccc(Oc2ccccc2)c1` [Compound 88] the “LC50 TBW E” value [1] was over 0.1%, the “LC50 MW” value [2] was over 0.01% and the “LC50 HF” value [3] was over 100 µg. For the same compound, the “LC50 CL” value [4] was 0.018%.
In the case of `Fc1ccc(Oc2cccc(COC(=Nc3ccc(F)c(Cl)c3)C3CC3)c2)cc1` [Compound 116], the “LC50 TBW E” value [1] is reported as 0.05%, the “LC50 MW” value [2] is reported as over 0.01% and the “LC50 HF” value [3] is reported as 15 µg. For the same compound, the “LC50 CL” value [4] was 0.00025%.
For `CCc1ccc(N=C(OCc2cccc(Oc3ccccc3)c2)C(C)(C)C)cc1` [Compound 163], the “LC50 TBW E” value [1] was over 0.1%, the “LC50 MW” value [2] was over 0.01% and the “LC50 HF” value [3] was over 100 µg. For the same compound, the “LC50 CL” value [4] was 0.004%.
In the case of `CC(C)C(=Nc1ccc(F)c(Cl)c1)OCc1cccc(Oc2cccc(Cl)c2)c1` [Compound 203], the “LC50 TBW E” value [1] is reported as 0.06%, the “LC50 MW” value [2] is reported as over 0.01% and the “LC50 HF” value [3] is reported as 43 µg. For the same compound, the “LC50 CL” value [4] was 0.0025%.
With `CC(C)C(=Nc1cc(F)c(Cl)cc1Cl)OCc1ccc(F)c(Oc2ccc(F)cc2)c1` [Compound 292] the “LC50 TBW E” value [1] was 0.05%, the “LC50 MW” value [2] was over 0.01% and the “LC50 HF” value [3] was 41 µg. The “LC50 CL” value [4] was 0.00075%.
For `Fc1ccc(Oc2cccc(COC(=Nc3cccc(C(F)(F)F)c3)C3CC3)c2)cc1` [Compound 294], the “LC50 TBW E” value [1] was over 0.1%, the “LC50 MW” value [2] was over 0.01% and the “LC50 HF” value [3] was over 100 µg. For the same compound, the “LC50 CL” value [4] was 0.017%.
With `CC(C)C(=Nc1ccc(F)c(Br)c1)OCc1ccc(F)c(Oc2ccccc2)c1` [Compound 299] the “LC50 TBW E” value [1] was 0.017%, the “LC50 MW” value [2] was over 0.01% and the “LC50 HF” value [3] was 8 µg. The “LC50 CL” value [4] was 0.0005%.
`CC(C)C(=Nc1ccc(C(C)(C)C)cc1)OCc1ccc(F)c(Oc2ccc(Cl)cc2)c1` [Compound 301] was tested, and the “LC50 TBW E” value [1] was over 0.1%, the “LC50 MW” value [2] was over 0.01% and the “LC50 HF” value [3] was over 100 µg. The “LC50 CL” value [4] was 0.008%.
In the case of `CC(C)C(=Nc1cccc([N+](=O)[O-])c1)OCc1cccc(Oc2ccccc2)c1` [Compound 302], the “LC50 TBW E” value [1] is reported as over 0.1%, the “LC50 MW” value [2] is reported as over 0.01% and the “LC50 HF” value [3] is reported as 15 µg. For the same compound, the “LC50 CL” value [4] was 0.003%.
`CC(C)C(=Nc1c(F)c(F)cc(F)c1F)OCc1cccc(Oc2ccc(F)cc2)c1` [Compound 304] was tested, and the “LC50 TBW E” value [1] was over 0.1%, the “LC50 MW” value [2] was over 0.01% and the “LC50 HF” value [3] was over 100 µg. For the same compound, the “LC50 CL” value [4] was 0.0024%.
In the case of `CC(Br)C(=Nc1ccc2c(c1)OCO2)OCc1cccc(Oc2ccccc2)c1` (centres unmarked) [Compound 306], the “LC50 TBW E” value [1] is reported as 0.1%, the “LC50 MW” value [2] is reported as over 0.01% and the “LC50 HF” value [3] is reported as over 100 µg. The “LC50 CL” value [4] was 0.005%.
For `CC(C)C(=Nc1ccc([N+](=O)[O-])c(C(F)(F)F)c1)OCc1cccc(Oc2ccccc2)c1` [Compound 307], the “LC50 TBW E” value [1] was 0.08%, the “LC50 MW” value [2] was over 0.01% and the “LC50 HF” value [3] was over 100 µg. For the same compound, the “LC50 CL” value [4] was 0.002%.
In the case of `CC(C)C(=Nc1ccc(F)c(I)c1)OCc1ccc(F)c(Oc2ccccc2)c1` [Compound 334], the “LC50 TBW E” value [1] is reported as 0.013%, the “LC50 MW” value [2] is reported as over 0.01% and the “LC50 HF” value [3] is reported as 9 µg. The “LC50 CL” value [4] was 0.0007%.
`CC(C)c1ccc(N=C(OCc2cccc(Oc3ccccc3)c2)C2CCC2)cc1` [Compound 339] was tested, and the “LC50 TBW E” value [1] was over 0.1%, the “LC50 MW” value [2] was over 0.01% and the “LC50 HF” value [3] was over 100 µg. For the same compound, the “LC50 CL” value [4] was 0.017%.
With `CC(C)C(=Nc1ccc(Cl)c(C(F)(F)F)c1)OCc1ccc(F)c(Oc2ccc(F)cc2)c1` [Compound 340] the “LC50 TBW E” value [1] was 0.04%, the “LC50 MW” value [2] was 0.0069% and the “LC50 HF” value [3] was 34 µg. The “LC50 CL” value [4] was 0.00037%.
In the case of `CC(C)C(=Nc1cccc(Cl)c1)OCc1ccc(F)c(Oc2ccc(F)cc2)c1` [Compound 341], the “LC50 TBW E” value [1] is reported as 0.023%, the “LC50 MW” value [2] is reported as over 0.01% and the “LC50 HF” value [3] is reported as 4 µg. The “LC50 CL” value [4] was 0.0005%.
With `CC(C)C(=Nc1cccc(F)c1)OCc1ccc(F)c(Oc2ccc(F)cc2)c1` [Compound 342] the “LC50 TBW E” value [1] was 0.04%, the “LC50 MW” value [2] was over 0.01% and the “LC50 HF” value [3] was 4.1 µg. For the same compound, the “LC50 CL” value [4] was 0.0008%.
`Cc1ccc(Oc2cccc(COC(=Nc3ccc(C(C)(C)C)cc3)C(C)C)c2)cc1` [Compound 344] was tested, and the “LC50 TBW E” value [1] was over 0.1%, the “LC50 MW” value [2] was over 0.01% and the “LC50 HF” value [3] was over 100 µg. The “LC50 CL” value [4] was 0.024%.
In the case of `COc1ccc(Oc2cccc(COC(=Nc3ccc(C(C)(C)C)cc3)C(C)C)c2)cc1` [Compound 345], the “LC50 TBW E” value [1] is reported as over 0.1%, the “LC50 MW” value [2] is reported as over 0.01% and the “LC50 HF” value [3] is reported as over 100 µg. For the same compound, the “LC50 CL” value [4] was 0.018%.
With `CCOc1ccc(N=C(OCc2cccc(Oc3ccccc3)c2)C(C)C)cc1Cl` [Compound 368] the “LC50 TBW E” value [1] was 0.04%, the “LC50 MW” value [2] was over 0.01% and the “LC50 HF” value [3] was under 100 µg. The “LC50 CL” value [4] was 0.002%.
For `CCOc1ccc(N=C(OCc2cccc(Oc3ccccc3)c2)C(C)C)cc1` [Compound 371], the “LC50 TBW E” value [1] was over 0.1%, the “LC50 MW” value [2] was over 0.01% and the “LC50 HF” value [3] was under 100 µg. For the same compound, the “LC50 CL” value [4] was 0.0022%.
In the case of `CCOc1ccc(N=C(OCc2ccc(F)c(Oc3ccc(Cl)cc3)c2)C(C)C)cc1` [Compound 372], the “LC50 TBW E” value [1] is reported as over 0.1%, the “LC50 MW” value [2] is reported as over 0.01% and the “LC50 HF” value [3] is reported as over 100 µg. The “LC50 CL” value [4] was over 0.1%.
In the case of `CCOc1ccc(N=C(OCc2ccc(F)c(Oc3ccccc3)c2)C(C)C)cc1` [Compound 373], the “LC50 TBW E” value [1] is reported as over 0.1%, the “LC50 MW” value [2] is reported as over 0.01% and the “LC50 HF” value [3] is reported as under 100 µg. The “LC50 CL” value [4] was over 0.1%.
In the case of `CC(C)C(=Nc1ccc(I)c(Cl)c1)OCc1cccc(Oc2ccc(F)cc2)c1` [Compound 374], the “LC50 TBW E” value [1] is reported as 0.02%, the “LC50 MW” value [2] is reported as over 0.01% and the “LC50 HF” value [3] is reported as under 100 µg. For the same compound, the “LC50 CL” value [4] was 0.00058%.
With `CC(C)C(=Nc1ccc(F)c(Br)c1)OCc1ccc(F)c(Oc2ccc(Cl)cc2)c1` [Compound 379] the “LC50 TBW E” value [1] was 0.02%, the “LC50 MW” value [2] was over 0.01% and the “LC50 HF” value [3] was under 100 µg. For the same compound, the “LC50 CL” value [4] was 0.00075%.
`CC(C)C(=Nc1ccc(Br)c(Br)c1)OCc1ccc(F)c(Oc2ccc(F)cc2)c1` [Compound 383] was tested, and the “LC50 TBW E” value [1] was 0.038%, the “LC50 MW” value [2] was over 0.01% and the “LC50 HF” value [3] was under 100 µg. For the same compound, the “LC50 CL” value [4] was 0.00029%.
`CC(C)C(=Nc1ccc(Br)c(Br)c1)OCc1ccc(F)c(Oc2ccccc2)c1` [Compound 384] was tested, and the “LC50 TBW E” value [1] was 0.025%, the “LC50 MW” value [2] was over 0.01% and the “LC50 HF” value [3] was under 100 µg. For the same compound, the “LC50 CL” value [4] was over 0.1%.
For `CC(C)C(=Nc1ccc(I)c(Cl)c1)OCc1ccc(F)c(Oc2ccc(F)cc2)c1` [Compound 385], the “LC50 TBW E” value [1] was over 0.1%, the “LC50 MW” value [2] was over 0.01% and the “LC50 HF” value [3] was under 100 µg. The “LC50 CL” value [4] was over 0.1%.
For `CC(C)C(=Nc1cccc(Br)c1)OCc1ccc(F)c(Oc2ccc(Cl)cc2)c1` [Compound 386], the “LC50 TBW E” value [1] was over 0.1%, the “LC50 MW” value [2] was over 0.01% and the “LC50 HF” value [3] was under 100 µg. The “LC50 CL” value [4] was 0.0012%.
With `CC(C)C(=Nc1ccc(Cl)c(C(F)(F)F)c1)OCc1ccc(F)c(Oc2ccccc2)c1` [Compound 388] the “LC50 TBW E” value [1] was over 0.1%, the “LC50 MW” value [2] was over 0.01% and the “LC50 HF” value [3] was under 100 µg. For the same compound, the “LC50 CL” value [4] was 0.0012%.
In the case of `CC(C)C(=Nc1cccc(I)c1)OCc1cccc(Oc2ccc(Cl)cc2)c1` [Compound 389], the “LC50 TBW E” value [1] is reported as over 0.1%, the “LC50 MW” value [2] is reported as over 0.01% and the “LC50 HF” value [3] is reported as under 100 µg. For the same compound, the “LC50 CL” value [4] was 0.00069%.
